# Legend:
# MATIN [1] = assay: Pre-emergence herbicidal action against MATIN; type: in vivo, Matricaria inodora
# Outline: (§1)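 Pre-emergence soil-surface spray of formulated compound (WP or EC; 600 to 800 l/ha; 0.2% wetting agent) over seeds sown in sandy loam. After 3 weeks under greenhouse conditions, damage is estimated visually in percent against untreated plants.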
# AMARE [2] = assay: Post-emergence herbicidal action against AMARE; type: in vivo, Amaranthus retroflexus; conditions: 20 g/ha, visual assessment about 3 weeks after treatment, 100% = plants have died, 0% = like control plants
# Outline: (§2)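 Spray, one-leaf stage: WP or EC compound in water, 600–800 l/ha, 0.2% wetting agent. Plants held about 3 weeks in the greenhouse, then visually rated in percent of kill compared with untreated controls.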
# POLCO = assay: Pre-emergence herbicidal action against POLCO; type: in vivo, Polygonum convolvulus
# Outline: as §1
# PHBPU [3] = assay: Pre-emergence herbicidal action against PHBPU; type: in vivo, Pharbitis purpurea; conditions: dosage 80 g/ha
# Outline: as §1
# VERPE [4] = assay: Post-emergence herbicidal action against VERPE; type: in vivo, Veronica persica; conditions: 20 g/ha
# Outline: as §2
# DIGSA [5] = assay: Pre-emergence herbicidal action against DIGSA; type: in vivo, Digitaria sanguinalis
# Outline: as §1
# MATIN [6] = assay: Post-emergence herbicidal action against MATIN; type: in vivo, Matricaria inodora
# Outline: as §2
# DIGSA [7] = assay: Post-emergence herbicidal action against DIGSA; type: in vivo, Digitaria sanguinalis
# Outline: as §2
# ABUTH [8] = assay: Post-emergence herbicidal action against ABUTH; type: in vivo, Abutilon theophrasti; conditions: visual assessment about 3 weeks after treatment vs untreated controls
# Outline: as §2
# SETVI [9] = assay: Pre-emergence herbicidal action against SETVI; type: in vivo, Setaria viridis
# Outline: as §1
# VIOTR [10] = assay: Post-emergence herbicidal action against VIOTR; type: in vivo, Viola tricolor; conditions: Viola tricolor, 504 h
# Outline: as §2
# AVEFA [11] = assay: Pre-emergence herbicidal action against AVEFA; type: in vivo, Avena fatua; conditions: 80 g/ha, pre-emergence
# Outline: as §1
# PHBPU [12] = assay: Post-emergence herbicidal action against PHBPU; type: in vivo, Pharbitis purpurea
# Outline: as §2
# AVEFA [13] = assay: Post-emergence herbicidal action against AVEFA; type: in vivo, Avena fatua; conditions: 20 g/ha, visual assessment about 3 weeks after treatment, 100% = plants have died, 0% = like control plants
# Outline: as §2
# ABUTH [14] = assay: Pre-emergence herbicidal action against ABUTH; type: in vivo, Abutilon theophrasti
# Outline: as §1
# VERPE [15] = assay: Pre-emergence herbicidal action against VERPE; type: in vivo, Veronica persica; conditions: Veronica persica, 504 h, dosage 80 g/ha
# Outline: as §1
# ECHCG [16] = assay: Pre-emergence herbicidal action against ECHCG; type: in vivo, Echinochloa crus-galli
# Outline: as §1
# VIOTR [17] = assay: Pre-emergence herbicidal action against VIOTR; type: in vivo, Viola tricolor
# Outline: as §1
# SETVI [18] = assay: Post-emergence herbicidal action against SETVI; type: in vivo, Setaria viridis; conditions: Setaria viridis, 504 h
# Outline: as §2
# ECHCG [19] = assay: Post-emergence herbicidal action against ECHCG; type: in vivo, Echinochloa crus-galli
# Outline: as §2
# AMARE [20] = assay: Pre-emergence herbicidal action against AMARE; type: in vivo, Amaranthus retroflexus
# Outline: as §1
# ALOMY [21] = assay: Pre-emergence herbicidal action against ALOMY; type: in vivo, Alopecurus myosuroides; conditions: 80 g/ha, pre-emergence, scored visually after 3 weeks vs untreated controls (100% = plants have died, 0% = like control plants)
# Outline: as §1
# ALOMY [22] = assay: Post-emergence herbicidal action against ALOMY; type: in vivo, Alopecurus myosuroides; conditions: dosage 20 g/ha, visual assessment about 3 weeks after treatment vs untreated controls
# Outline: as §2
# [23] = Tripleurospermum inodorum, 504 h, dosage 20 g/ha
# [24] = 80 g/ha, scored visually after 3 weeks vs untreated controls (100% = plants have died, 0% = like control plants)
smiles,measurement,setting,value
COc1c(C(=O)Nc2nnnn2C)ccc(C(F)(F)F)c1C(=O)NC1CC1 [Example 1-58],pest or weed control at 20 g/ha,MATIN [1]; [23],90%
same,pest or weed control at 80 g/ha,"MATIN [1]; Tripleurospermum inodorum, 504 h, dosage 80 g/ha",100%
same,pest or weed control at 20 g/ha,"AMARE [2]; Amaranthus retroflexus, 504 h",100%
same,pest or weed control at 20 g/ha,"POLCO; Fallopia convolvulus, 504 h, dosage 20 g/ha",80%
same,pest or weed control at 80 g/ha,"POLCO; Fallopia convolvulus, 504 h, dosage 80 g/ha",90%
same,pest or weed control at 80 g/ha,"PHBPU [3]; Ipomoea purpurea, 504 h",90%
same,pest or weed control at 20 g/ha,"VERPE [4]; Veronica persica, 504 h",80%
same,pest or weed control at 80 g/ha,"DIGSA [5]; Digitaria sanguinalis, 504 h, dosage 80 g/ha",80%
same,pest or weed control at 5 g/ha,"MATIN [6]; Tripleurospermum inodorum, 504 h, dosage 5 g/ha",80%
same,pest or weed control at 20 g/ha,MATIN [6]; [23],90%
same,pest or weed control at 5 g/ha,"DIGSA [7]; Digitaria sanguinalis, 504 h, 5 g/ha",100%
same,pest or weed control at 20 g/ha,"DIGSA [7]; Digitaria sanguinalis, 504 h, 20 g/ha",100%
same,pest or weed control at 5 g/ha,"ABUTH [8]; Abutilon theophrasti, 504 h, dosage 5 g/ha",90%
same,pest or weed control at 20 g/ha,"ABUTH [8]; Abutilon theophrasti, 504 h, dosage 20 g/ha",90%
same,pest or weed control at 20 g/ha,"SETVI [9]; Setaria viridis, 504 h, dosage 20 g/ha",100%
same,pest or weed control at 80 g/ha,"SETVI [9]; Setaria viridis, 504 h, dosage 80 g/ha",100%
same,pest or weed control at 5 g/ha,VIOTR [10]; 5 g/ha,90%
same,pest or weed control at 20 g/ha,VIOTR [10]; 20 g/ha,100%
same,pest or weed control at 80 g/ha,"AVEFA [11]; Avena fatua, 504 h",80%
same,pest or weed control at 20 g/ha,"PHBPU [12]; Ipomoea purpurea, 504 h, dosage 20 g/ha",90%
same,pest or weed control at 20 g/ha,"AVEFA [13]; Avena fatua, 504 h",90%
same,pest or weed control at 80 g/ha,"ABUTH [14]; Abutilon theophrasti, 504 h, 80 g/ha, scored visually after 3 weeks vs untreated controls (100% = plants have died, 0% = like control plants)",80%
same,pest or weed control at 80 g/ha,VERPE [15],100%
same,pest or weed control at 20 g/ha,"ECHCG [16]; Echinochloa crus-galli, 504 h, 20 g/ha",100%
same,pest or weed control at 80 g/ha,"ECHCG [16]; Echinochloa crus-galli, 504 h, 80 g/ha",100%
same,pest or weed control at 20 g/ha,"VIOTR [17]; Viola tricolor, 504 h, dosage 20 g/ha",100%
same,pest or weed control at 80 g/ha,"VIOTR [17]; Viola tricolor, 504 h, dosage 80 g/ha",100%
same,pest or weed control at 5 g/ha,SETVI [18]; dosage 5 g/ha,100%
same,pest or weed control at 20 g/ha,SETVI [18]; dosage 20 g/ha,100%
same,pest or weed control at 5 g/ha,"ECHCG [19]; Echinochloa crus-galli, 504 h, dosage 5 g/ha",90%
same,pest or weed control at 20 g/ha,"ECHCG [19]; Echinochloa crus-galli, 504 h, dosage 20 g/ha",90%
same,pest or weed control at 20 g/ha,"AMARE [20]; Amaranthus retroflexus, 504 h, 20 g/ha, scored visually after 3 weeks vs untreated controls, 100% = plants have died, 0% = like control plants",100%
same,pest or weed control at 80 g/ha,"AMARE [20]; Amaranthus retroflexus, 504 h, 80 g/ha, scored visually after 3 weeks vs untreated controls, 100% = plants have died, 0% = like control plants",100%
same,pest or weed control at 80 g/ha,"ALOMY [21]; Alopecurus myosuroides, 504 h",90%
CCn1nnnc1NC(=O)c1ccc(C(F)(F)F)c(C(=O)NC(C)C2CC2)c1C (stereo not drawn) [Example 2-31],Pre-emergence action against MATIN in %,MATIN [1]; dosage 20 g/ha,100%
same,Pre-emergence action against MATIN in %,MATIN [1]; dosage 80 g/ha,100%
same,Post-emergence action at 20 g/ha against AMARE in %,AMARE [2],80%
same,Pre-emergence action against POLCO in %,POLCO; dosage 20 g/ha,80%
same,Pre-emergence action against POLCO in %,POLCO; dosage 80 g/ha,80%
same,Pre-emergence action against PHBPU in %,PHBPU [3],80%
same,Post-emergence action against VERPE in %,VERPE [4],80%
same,Pre-emergence action against DIGSA in %,DIGSA [5]; dosage 20 g/ha,100%
same,Pre-emergence action against DIGSA in %,DIGSA [5]; dosage 80 g/ha,100%
same,Post-emergence action against MATIN in %,MATIN [6]; dosage 5 g/ha,80%
same,Post-emergence action against MATIN in %,MATIN [6]; dosage 20 g/ha,80%
same,Post-emergence action against DIGSA,DIGSA [7]; 20 g/ha,80%
same,Post-emergence action against ABUTH in %,ABUTH [8]; dosage 20 g/ha,80%
same,Pre-emergence action against SETVI in %,SETVI [9]; dosage 80 g/ha,100%
same,Pre-emergence action against AVEFA in %,AVEFA [11],100%
same,Post-emergence action against PHBPU in %,PHBPU [12]; dosage 5 g/ha,80%
same,Post-emergence action against PHBPU in %,PHBPU [12]; dosage 20 g/ha,90%
same,Post-emergence action at 20 g/ha against AVEFA in %,AVEFA [13],80%
same,Pre-emergence action against ABUTH (herbicidal activity),ABUTH [14]; [24],100%
same,Pre-emergence action against ABUTH (herbicidal activity in percent),"ABUTH [14]; dosage 20 g/ha, scored visually after 3 weeks vs untreated controls, 100% = plants have died, 0% = like control plants",100%
same,Pre-emergence action against ECHCG in %,ECHCG [16]; 80 g/ha,100%
same,Post-emergence action against ALOMY in %,ALOMY [22],80%
same,Pre-emergence action against VIOTR in %,VIOTR [17]; dosage 20 g/ha,100%
same,Pre-emergence action against VIOTR in %,VIOTR [17]; dosage 80 g/ha,100%
same,Post-emergence action against ECHCG in %,ECHCG [19]; dosage 5 g/ha,80%
same,Post-emergence action against ECHCG in %,ECHCG [19]; dosage 20 g/ha,90%
same,Pre-emergence action against AMARE in %,"AMARE [20]; 20 g/ha, scored visually after 3 weeks vs untreated controls, 100% = plants have died, 0% = like control plants",100%
same,Pre-emergence action against AMARE in %,AMARE [20]; [24],100%
same,Pre-emergence action against ALOMY (herbicidal activity),ALOMY [21],80%
